According to ChEMBL document CHEMBL4602690, “Pigments of the Moss Paraleucobryum longifolium: Isolation and Structure Elucidation of Prenyl-Substituted 8,8'-Linked 9,10-Phenanthrenequinone Dimers” (J Nat Prod, 2020):

Legend:
Format in all cases: functional, cell-based
SiHa = assay: Antiproliferative activity against human SiHa cells by MTT assay
MDA-MB-231 = assay: Antiproliferative activity against human MDA-MB-231 cells by MTT assay
A2780 = assay: Antiproliferative activity against human A2780 cells by MTT assay
HeLa = assay: Antiproliferative activity against human HeLa cells by MTT assay

Measured: IC50

COc1cc(O)c2c(c1-c1c(OC)cc(O)c3c1C(=O)C(=O)c1c-3ccc(O)c1CCC(C)(C)O)C(=O)C(=O)c1c-2ccc(O)c1CCC(C)(C)O
< 10 µM: all assays above

C=C(C)[C@H](CCC(C)(C)O)Cc1c(O)ccc2c1C(=O)C(=O)c1c-2c(O)cc(OC)c1-c1c(OC)cc(O)c2c1C(=O)C(=O)c1c-2ccc(O)c1C[C@@H](CCC(C)(C)O)C(=C)C
< 10 µM: all assays above
